The target of the assay is T1, hKCC2 (Homo sapiens, UniProt Q9H2X9, L143X/L381X/L939X).
T1 construct: expressed in transfected cells; host or cells: Xenopus laevis oocytes injected with 25 ng hKCC2 cRNA
T1 sequence (Q9H2X9 with tags, fused parts or gaps isoform Q9H2X9-2 L120X/L358X/L916X limits assumed): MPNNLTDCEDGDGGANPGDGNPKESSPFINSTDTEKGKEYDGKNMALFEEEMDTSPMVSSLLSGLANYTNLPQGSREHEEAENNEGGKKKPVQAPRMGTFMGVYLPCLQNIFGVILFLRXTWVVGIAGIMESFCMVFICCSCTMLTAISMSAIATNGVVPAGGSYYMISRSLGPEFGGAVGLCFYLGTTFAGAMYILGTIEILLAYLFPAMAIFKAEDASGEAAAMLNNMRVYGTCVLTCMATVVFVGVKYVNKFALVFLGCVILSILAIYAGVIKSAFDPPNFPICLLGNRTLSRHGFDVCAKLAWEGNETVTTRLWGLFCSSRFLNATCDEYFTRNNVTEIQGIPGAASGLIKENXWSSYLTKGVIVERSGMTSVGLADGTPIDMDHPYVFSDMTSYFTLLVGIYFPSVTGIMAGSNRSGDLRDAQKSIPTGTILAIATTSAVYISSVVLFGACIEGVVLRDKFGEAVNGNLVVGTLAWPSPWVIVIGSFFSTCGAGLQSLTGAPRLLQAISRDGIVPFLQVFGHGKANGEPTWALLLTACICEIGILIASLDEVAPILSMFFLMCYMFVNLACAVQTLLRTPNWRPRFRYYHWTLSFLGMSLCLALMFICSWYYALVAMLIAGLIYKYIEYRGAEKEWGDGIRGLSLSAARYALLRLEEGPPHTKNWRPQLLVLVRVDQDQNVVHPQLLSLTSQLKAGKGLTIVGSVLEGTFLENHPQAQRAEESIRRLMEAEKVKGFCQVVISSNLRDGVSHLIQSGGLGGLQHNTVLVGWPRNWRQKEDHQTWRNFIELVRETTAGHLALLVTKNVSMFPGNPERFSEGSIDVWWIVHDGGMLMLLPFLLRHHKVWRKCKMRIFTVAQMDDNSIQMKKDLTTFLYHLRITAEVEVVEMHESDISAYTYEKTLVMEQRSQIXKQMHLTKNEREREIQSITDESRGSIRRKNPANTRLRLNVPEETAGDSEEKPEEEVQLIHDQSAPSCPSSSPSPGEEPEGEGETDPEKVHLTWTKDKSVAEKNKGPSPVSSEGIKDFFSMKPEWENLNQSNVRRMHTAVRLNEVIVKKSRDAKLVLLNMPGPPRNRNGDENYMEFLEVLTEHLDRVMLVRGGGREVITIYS
Briefly: 86Rb+ uptake (K+-Cl- cotransport) in Xenopus oocytes injected with hKCC2 cRNA. It counts as cell-based. The protocol: Oocytes were surgically collected from anesthetized female Xenopus adults under 0.17% tricaine and incubated for 1 hour with vigorous shaking in frog Ringer ND96 (96 mM sodium chloride, 2 mM potassium chloride, 1.8 mM calcium chloride, 1.0 mM magnesium chloride, and 5 mM Hepes/Tris, pH 7.4) in the presence of 2 mg/ml collagenase B. Oocytes were then washed four times in ND96, manually defolliculated, and incubated overnight in ND96 at 18° C. On the next day, defolliculated stage V–VI oocytes were injected with 50 nl of water or a solution containing cRNA at a concentration of 0.25–0.5 μg/μl (25 ng/oocyte). Oocytes were incubated at 17–18° C. in ND96 (96 mM sodium chloride, 2 mM potassium chloride, 1.8 mM calcium chloride, 1.0 mM magnesium chloride, and 5 mM Hepes/Tris, pH 7.4), supplemented with 2.5 mM sodium pyruvate and 5 mg/100 ml gentamicin, for 3–4 days. The incubation medium was changed every 24 hours. On the day of the experiment, oocytes were switched to Cl^−-free ND96 (96 mM Na^+ Na^+ isethionate, 2 mM K^+ gluconate, 6 mM Ca^2+ gluconate, 1 mM Mg^2+ gluconate, 5 mM Hepes, 2.5 mM sodium pyruvate, 5 mg/100 ml gentamicin, pH 7.4) for 2 hours prior to the uptake assay.
K^+—Cl^− cotransport was assessed by measuring tracer ^86Rb^+ uptake (NEN® Life Science Products of Boston, Mass.) in experimental groups of at least 15 oocytes. […] All uptake solutions also contained 1.8 mM CaCl2, 1 mM MgCl2, 5 mM Hepes, pH 7.4, and were supplemented with 1 mM ouabain and […] ^86Rb^+. Isotonic conditions were generated by supplementing the same solutions with 3.5 g/100 ml sucrose to reach isosmolar conditions for oocytes (˜210 mOsm/kg). Ouabain was added to prevent ^86Rb^+ uptake via the Na^+—K^+-ATPase. The absence of extracellular Na^+ and the hypotonicity of the uptake medium prevented ^86Rb^+ uptake via the endogenous Na^+—K^+-2Cl^− cotransporter that is present in oocytes (Gamba et al. (1994) J Biol Chem 269:17713–17722).
All uptake assays were performed at 32° C. At the end of the uptake period, oocytes were washed five times in ice-cold uptake solution without isotope to remove extracellular fluid tracer. Oocytes were dissolved in 10% SDS, and tracer activity was determined for each oocyte by β-scintillation counting.
Uptake assays to detect K^+—Cl^− cotransport mediated by a hKCC2 were performed using similar methods.
FIG. 10 presents line graphs depicting concentration dependence of K^+—Cl^− cotransport mediated by hKCC2, which was used to calculate ion affinities using analogous methods. Uptake assays were simultaneously assessed in water-injected oocytes. To determine ^86Rb^+ uptake due to KCC2, the mean values for water groups were subtracted from the mean values for corresponding KCC2 groups. Uptake assays in hypotonic media were performed for 60 minutes with a fixed concentration of K^+or Cl^− at 50 mM. The concentration of the counterion was varied from 0 to 50 mM as indicated.

Where [1] appears, read: hKCC2, hypotonic, counterion fixed at 50 mM, 86Rb+ as substitute for K+, read-out: Km (Michaelis-Menten fit).

The values that follow come from patent US7183075B2, “Purified and isolated potassium-chloride cotransporter nucleic acids and polypeptides and therapeutic and screening methods using same” (Vanderbilt University, priority 2000, dated 2007).

Read-outs that look alike come from different tables or passages of the source.

Regarding `NS(=O)(=O)c1cc(C(=O)O)c(NCc2ccco2)cc1Cl` [furosemide], for the setting “KCC2”, the IC50 – broadly, the point on the concentration scale where inhibition reaches its midpoint – stood at 90 µM.
Take `[K+]` [Potassium]: the Km (in general, the concentration of substrate that gives half-maximal velocity) by setting is: (KCC2, read-out: Potassium Km) 9.3 mM; under setting [1], 9.3 mM.
Turning to `Cl` [Chloride], the Km is 6.3 mM (KCC2, read-out: Chloride Km) and 6.31 mM under setting [1].
HgCl2 [Hg—Cl2]: the “response of KCC2 to mercury” value (50 μM HgCl2, hypotonic) is “sensitive”.
